Experimental data published in patent US20240383908A1, “SYNTHESIS AND APPLICATION OF PHOSPHATASE DEGRADER” (HINOVA PHARMACEUTICALS INC., priority 2021, published 2024).

Tests used:
SHP2 protein [1] = target: T1, SHP2 protein (Homo sapiens, UniProt Q06124); experiment: Degradation activity on SHP2 protein in MIA Paca-2 cells (Western blot, DC50); format: cell-based; design: endogenous in cells; host or cells: MIA Paca-2 cells; details: read-out: Degradation activity for differenct cell lines MIA Paca-2 (DC50)
T1 sequence (Q06124 1-593): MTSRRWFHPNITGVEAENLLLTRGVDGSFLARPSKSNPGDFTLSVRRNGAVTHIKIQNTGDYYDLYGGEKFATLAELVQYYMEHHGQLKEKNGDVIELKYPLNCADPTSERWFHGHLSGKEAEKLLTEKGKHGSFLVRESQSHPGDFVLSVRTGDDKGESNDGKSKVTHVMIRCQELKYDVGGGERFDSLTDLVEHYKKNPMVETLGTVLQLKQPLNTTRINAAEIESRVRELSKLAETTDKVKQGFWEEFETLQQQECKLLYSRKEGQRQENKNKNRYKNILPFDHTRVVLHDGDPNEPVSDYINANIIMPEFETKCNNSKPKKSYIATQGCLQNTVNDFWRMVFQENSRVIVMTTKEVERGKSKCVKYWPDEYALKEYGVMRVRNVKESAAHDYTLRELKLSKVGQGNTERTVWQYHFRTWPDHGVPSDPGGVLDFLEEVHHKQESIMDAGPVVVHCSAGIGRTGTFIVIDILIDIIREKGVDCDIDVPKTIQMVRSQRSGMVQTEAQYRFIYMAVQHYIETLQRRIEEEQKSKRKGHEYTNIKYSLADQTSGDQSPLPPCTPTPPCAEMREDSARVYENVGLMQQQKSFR
Summary of the method: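 Cells were treated 24 h at 37 °C with compound (0.1–100 nM final, 0.1% DMSO). SHP2 was measured by Western blot with GAPDH as loading control, densitometry normalized to DMSO (100%). DC50, the concentration giving 50% degradation, came from a dose-response fit.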

SHP2 protein [2] = target: T1, SHP2 protein; experiment: Degradation activity on SHP2 protein in NCI-H358 cells (Western blot, DC50); format: cell-based; design: endogenous in cells; details: read-out: Degradation activity for differenct cell lines NCI-H358 (DC50)
Experimental: (1) MV-411 cells were cultured in the cell culture medium, and then well-growing cells were selected and inoculated in a 12-well plate, with 1 mL/well and 1×10^6 cells/well. The plate was incubated overnight in a 5% CO2 cell incubator at 37° C.
(2) 10 mM storage solution of each drug was prepared using dimethylsulfoxide (DMSO). The stock solution was diluted gradually with DMSO before use, and then 1 μL of the compound solution was added to the cell culture well (to ensure that the DMSO concentration in the culture system was […]), so that the final drug concentration is 100 nM, 10 nM, 3 nM, 1 nM, 0.3 nM, and 0.1 nM. Two wells were set for each concentration. The plate was gently shaken and mixed. Additionally, negative control wells (containing an equal amount of DMSO) and positive control wells were included.
(3) After 24 hours of cultivation, the cells were lysed using RIPA cell lysate, and the proteins were extracted. The protein concentration was measured using a BCA assay kit. 5× concentrated protein buffer was loaded, heated at 100° C. for 5 min, and then the sample was stored at −20° C.
(4) For each well, 30 μg of protein was loaded to polyacrylamide gel for electrophoresis.
(5) The protein was transferred from polyacrylamide gel to PVDF membrane, and sealed at room temperature with 5% skimmed milk for 1 h, which was then incubated with the primary antibodies (Anti-SHP2 rabbit mAb and Anti-GAPDH rabbit mAb) at 4° C. overnight. The membrane was washed three times with TBST solution, 10 minutes for each time. After that, the membrane was incubated with the secondary antibodies (horseradish peroxidase labeled goat anti-rabbit IgG) at room temperature for 2 h, and then washed three times with TBST solution, 10 minutes for each time, followed by exposure.
(6) The images were analyzed with Image J grayscale, and the degradation ratio of protein bands in the test group was calculated, based on the negative control group (DMSO) (100%).
(7) Using the Dose-response-inhibition equation in the data processing software GraphPad Prism 8, the DC50 value was obtained (which represents the drug concentration corresponding to 50% degradation of the target protein).
Using similar methods and different cell lines, the degradation activity of the compound according to the present invention on SHP2 protein of different cell lines was tested under suitable culture conditions.

SMILES	DC50 (SHP2 protein [1]) [µM]	DC50 (SHP2 protein [2]) [µM]
CC1(N)CCN(c2cnc(Sc3cccc(NC(=O)CCCCCCN4CC5(CCC(c6ccc(C(=O)NCc7ccc8c(c7)CN(C7CCC(=O)NC7=O)C8=O)nc6)CC5)C4)c3)cn2)CC1 (stereo not shown) [Compound 216]	< 0.1	< 0.1
CC1(N)CCN(c2cnc(Sc3cccc(NC(=O)CCCCCCN4CC5(CC=C(c6ccc(C(=O)NCc7ccc8c(c7)CN(C7CCC(=O)NC7=O)C8=O)nc6)CC5)C4)c3)cn2)CC1 (stereo not shown) [Compound 217]	< 0.1	< 0.1
CC1(N)CCN(c2cnc(Sc3cccc(NC(=O)CCCCCCCCN4CCC(c5ccc(C(=O)NCc6ccc7c(c6)CN(C6CCC(=O)NC6=O)C7=O)nn5)CC4)c3)cn2)CC1 (stereo not shown) [Compound 218]	< 0.1	< 0.1
CC1(N)CCN(c2cnc(Sc3cccc(NC(=O)CCCCCCCCN4C5C=C(c6ccc(C(=O)NCc7ccc8c(c7)CN(C7CCC(=O)NC7=O)C8=O)nn6)CC4CC5)c3)cn2)CC1 (stereo not shown) [Compound 219]	< 0.1	< 0.1
Cc1ncsc1-c1ccc([C@H](C)NC(=O)[C@@H]2C[C@@H](O)CN2C(=O)[C@@H](NC(=O)c2cnc(N3CCN(CCCCCC(=O)Nc4cccc(Sc5cnc(N6CCC(C)(N)CC6)cn5)c4)CC3)nc2)C(C)(C)C)cc1 [Compound 220]	< 0.1	< 0.1
Cc1ncsc1-c1ccc([C@H](C)NC(=O)[C@@H]2C[C@@H](O)CN2C(=O)[C@@H](NC(=O)c2cnc(N3CCN(CCCCC(=O)Nc4cccc(Sc5cnc(N6CCC(C)(N)CC6)cn5)c4)CC3)nc2)C(C)(C)C)cc1 [Compound 221]	< 0.1	< 0.1
CC1(N)CCN(c2cnc(Sc3cccc(NC(=O)CCCCCCCCN4CC=C(c5ccc(C(=O)NCc6ccc7c(c6)CN(C6CCC(=O)NC6=O)C7=O)nc5)C(C)(C)C4)c3)cn2)CC1 (stereo not shown) [Compound 222]	< 0.1	< 0.1
CCC1(N)CCN(c2cnc(Sc3cccc(NC(=O)CCCCCCCCN4CCC(c5ccc(C(=O)NCc6ccc7c(c6)CN(C6CCC(=O)NC6=O)C7=O)nn5)CC4)c3)cn2)CC1 (stereo not shown) [Compound 223]	< 0.1	< 0.1
CC1(N)C2CCC1CN(c1cnc(Sc3cccc(NC(=O)CCCCCCCCN4CCC(c5ccc(C(=O)NCc6ccc7c(c6)CN(C6CCC(=O)NC6=O)C7=O)nn5)CC4)c3)cn1)C2 (stereo not shown) [Compound 224]	< 0.1	< 0.1
CCC1(N)CCN(c2cnc(Sc3cccc(NC(=O)CCCCCCCCN4CCN(c5ccc(C(=O)NCc6ccc7c(c6)CN(C6CCC(=O)NC6=O)C7=O)nn5)CC4C(F)(F)F)c3)cn2)CC1 (stereo not shown) [Compound 226]	< 0.1	< 0.1
CC1(N)CCN(c2cnc(Sc3cccc(NC(=O)CCCCCCCCN4CCN(c5ccc(C(=O)NCc6ccc7c(c6)CN(C6CCC(=O)NC6=O)C7=O)nc5Cl)CC4C(F)(F)F)c3)cn2)CC1 (stereo not shown) [Compound 227]	< 0.1	< 0.1
CC1CC(c2ccc(C(=O)NCc3ccc4c(c3)CN(C3CCC(=O)NC3=O)C4=O)nn2)=CCN1CCCCCCCCC(=O)Nc1cccc(Sc2cnc(N3CCC(C)(N)CC3)cn2)c1 (stereo not shown) [Compound 228]	< 0.1	< 0.1
CC1(N)CCN(c2cnc(Sc3cccc(NC(=O)CCCCCCCCN4CCN(c5ccc(C(=O)NCc6ccc7c(c6)CN(C6CCC(=O)NC6=O)C7=O)cc5)CC4)c3)cn2)CC1 (stereo not shown) [Compound 229]	< 0.1	< 0.1
Cc1ncsc1-c1ccc([C@H](C)NC(=O)[C@@H]2C[C@@H](O)CN2C(=O)[C@@H](NC(=O)c2cnc(N3CCN(CCCC(=O)Nc4cccc(Sc5cnc(N6CCC7(CC6)CO[C@@H](C)[C@H]7N)cn5)c4)CC3)nc2)C(C)(C)C)cc1 [Compound 230]	< 0.1	< 0.1

More lines, now with the values ahead:

DC50 (SHP2 protein [1]) [µM]	DC50 (SHP2 protein [2]) [µM]	SMILES
> 1	> 1	Cc1ncsc1-c1ccc([C@H](C)NC(=O)[C@@H]2C[C@@H](O)CN2C(=O)[C@@H](NC(=O)c2cnc(N3CCN(CC(=O)Nc4cccc(Sc5cnc(N6CCC(C)(N)CC6)cn5)c4)CC3)nc2)C(C)(C)C)cc1 [Compound 231]
< 0.1	< 0.1	CC1(N)CCN(c2cnc(Sc3cccc(NC(=O)CCCCCCCCN4C[C@@H]5C[C@H]4CN5c4ccc(C(=O)NCc5ccc6c(c5)CN(C5CCC(=O)NC5=O)C6=O)nn4)c3)cn2)CC1 (stereo partly shown) [Compound 237]
< 0.1	< 0.1	CC1(N)CCN(c2cnc(Sc3cccc(NC(=O)CCCCCCCCN4C[C@H]5C[C@@H]4CN5c4ccc(C(=O)NCc5ccc6c(c5)CN(C5CCC(=O)NC5=O)C6=O)nn4)c3)cn2)CC1 (stereo partly shown) [Compound 238]
< 0.1	< 0.1	C[C@@H]1CN(CCCCCCCCC(=O)Nc2cccc(Sc3cnc(N4CCC(C)(N)CC4)cn3)c2)CCN1c1ccc(C(=O)NCc2ccc3c(c2)CN(C2CCC(=O)NC2=O)C3=O)nn1 (stereo partly shown) [Compound 239]
< 0.1	< 0.1	Cc1ncsc1-c1ccc([C@H](C)NC(=O)[C@@H]2C[C@@H](O)CN2C(=O)[C@@H](NC(=O)c2cnc(N3CCN(CCCCCCC(=O)Nc4cccc(Sc5cnc(N6CCC(C)(N)CC6)cn5)c4)CC3)nc2)C(C)(C)C)cc1 [Compound 241]
< 0.1	< 0.1	CC1CN(CCCCCCCCC(=O)Nc2cccc(Sc3cnc(N4CCC(C)(N)CC4)cn3)c2)CC=C1c1ccc(C(=O)NC(C)c2ccc3c(c2)CN(C2CCC(=O)NC2=O)C3=O)nc1 (stereo not shown) [Compound 242]
< 0.1	< 0.1	CC1CN(CCCCCCCCC(=O)Nc2cccc(Sc3cnc(N4CCC(C)(N)CC4)cn3)c2)CC=C1c1ccc(C(=O)NCc2ccc3c(c2)CN(C2CCC(=O)NC2=O)C3=O)nc1 (stereo not shown) [Compound 243]
< 0.1	< 0.1	CC1(N)CCN(c2cnc(Sc3cccc(NC(=O)CCCCc4ccc(N5CCN(c6ccc(C(=O)NCc7ccc8c(c7)CN(C7CCC(=O)NC7=O)C8=O)nn6)CC5)cc4)c3)cn2)CC1 (stereo not shown) [Compound 244]
< 0.1	< 0.1	CC(CCCCCCCC(=O)Nc1cccc(Sc2cnc(N3CCC(C)(N)CC3)cn2)c1)N1CC=C(c2ccc(C(=O)NCc3ccc4c(c3)CN(C3CCC(=O)NC3=O)C4=O)nc2)C(C)(C)C1 (stereo not shown) [Compound 245]
< 0.1	< 0.1	Cn1nc(C(=O)NCc2ccc3c(c2)CN(C2CCC(=O)NC2=O)C3=O)cc1C1=CCN(CCCCCCCCC(=O)Nc2cccc(Sc3cnc(N4CCC(C)(N)CC4)cn3)c2)CC1 (stereo not shown) [Compound 246]
> 1	0.1 to 1	CC1(N)CCN(c2cnc(Sc3cccc(NCc4ccc(CN5CCN(c6ccc(C(=O)NCc7ccc8c(c7)CN(C7CCC(=O)NC7=O)C8=O)nn6)CC5)cc4)c3)cn2)CC1 (stereo not shown) [Compound 247]
< 0.1	< 0.1	CC1(N)CCN(c2cnc(Sc3cccc(NC(=O)CCN4CCN(c5ccc(C(=O)NCc6ccc7c(c6)CN(C6CCC(=O)NC6=O)C7=O)nn5)CC4)c3)cn2)CC1 (stereo not shown) [Compound 248]
< 0.1	< 0.1	C[C@H]1CN(c2ccc(C(=O)NCc3ccc4c(c3)CN(C3CCC(=O)NC3=O)C4=O)nn2)CCN1CCCCCCCCC(=O)Nc1cccc(Sc2cnc(N3CCC(C)(N)CC3)cn2)c1 (stereo partly shown) [Compound 249]
< 0.1	< 0.1	C[C@H]1CN(CCCCCCCCC(=O)Nc2cccc(Sc3cnc(N4CCC(C)(N)CC4)cn3)c2)CCN1c1ccc(C(=O)NCc2ccc3c(c2)CN(C2CCC(=O)NC2=O)C3=O)nn1 (stereo partly shown) [Compound 250]
< 0.1	< 0.1	CC1(N)CCN(c2cnc(Sc3cccc(NC(=O)CCCCCCCCN4CCN(c5ccc(C(=O)NCc6ccc7c(c6)CN(C6CCC(=O)NC6=O)C7=O)nn5)C[C@@H]4CO)c3)cn2)CC1 (stereo partly shown) [Compound 251]
